From ChEMBL document CHEMBL4706549, “Isoquinolinone derivatives as potent CNS multi-receptor D/5-HT/5-HT/5-HT/5-HT agents: Synthesis and pharmacological evaluation” (Eur J Med Chem, 2020)
The source made the active and inactive calls. No cut-off for these calls is given here.

Legend:
D(2) dopamine receptor [1] = biological target: D(2) dopamine receptor (Rattus norvegicus, UniProt P61169); assay: biochemical
Description: Displacement of [3H]spiperone from D2 receptor in rat striatum measured after 15 mins by liquid scintillation counting method

[2] = biological target: 5-hydroxytryptamine receptor 2A (Rattus norvegicus, UniProt P14842); assay: biochemical
[3] = biological target: T1, 5-hydroxytryptamine receptor 1A (Rattus norvegicus, UniProt P19327); assay: biochemical
T1 sequence (P19327 whole entry): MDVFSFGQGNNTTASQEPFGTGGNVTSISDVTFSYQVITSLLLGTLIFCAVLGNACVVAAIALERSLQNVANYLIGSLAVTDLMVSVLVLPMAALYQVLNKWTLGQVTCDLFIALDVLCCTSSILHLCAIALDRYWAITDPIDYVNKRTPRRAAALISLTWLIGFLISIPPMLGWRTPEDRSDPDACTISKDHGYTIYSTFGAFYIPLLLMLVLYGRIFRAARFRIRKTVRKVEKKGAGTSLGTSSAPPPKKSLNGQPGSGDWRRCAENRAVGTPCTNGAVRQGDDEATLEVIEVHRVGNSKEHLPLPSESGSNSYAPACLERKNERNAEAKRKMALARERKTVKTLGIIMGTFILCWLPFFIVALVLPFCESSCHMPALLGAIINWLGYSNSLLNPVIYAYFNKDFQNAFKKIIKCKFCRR
Description: Displacement of [3H](+)8-OH-DPAT from rat cerebral cortex 5HT1A receptor measured after 30 mins by liquid scintillation counting method

[4] = biological target: Sigma non-opioid intracellular receptor 1 (Homo sapiens, UniProt Q99720); assay: Binding affinity to sigma 1 receptor (unknown origin)
[5] = biological target: Sodium-dependent noradrenaline transporter (Homo sapiens, UniProt P23975); assay: Binding affinity to NET (unknown origin)
Histamine H3 receptor = Histamine H3 receptor (Homo sapiens, UniProt Q9Y5N1); assay: Binding affinity to H3 receptor (unknown origin)
[6] = biological target: Adrenergic receptor alpha-1 (Rattus norvegicus, UniProt P15823+P23944+P43140)
Description: Displacement of [3H]prazosin from rat cerebral cortex alpha1 adrenergic receptor measured after 60 mins by liquid scintillation counting method

Histamine H1 receptor [7] = biological target: Histamine H1 receptor (Cavia porcellus, UniProt P31389)
Description: Displacement of [3H]pyrilamine from guinea pig cerebellum histamine H1 receptor measured after 60 mins by liquid scintillation counting method

[8] = biological target: 5-hydroxytryptamine receptor 2C (Rattus norvegicus, UniProt P08909)
Description: Displacement of [3H]mesulergine from rat cerebral cortex 5HT2C receptor measured after 15 mins by liquid scintillation counting method

[9] = biological target: Adrenergic receptor alpha-2 (Homo sapiens, UniProt P08913+P18825+P18089); assay: Binding affinity to alpha2 adrenergic receptor (unknown origin); format: protein assay
[10] = biological target: 5-hydroxytryptamine receptor 7 (Rattus norvegicus, UniProt P32305); assay: biochemical
[11] = biological target: Voltage-gated inwardly rectifying potassium channel KCNH2 (Homo sapiens, UniProt Q12809)
Description: Inhibition of human ERG expressed in HEK293 cells by whole-cell patch clamp method

[12] = biological target: Sodium-dependent serotonin transporter (Homo sapiens, UniProt P31645); assay: Binding affinity to SERT (unknown origin)
D(1A) dopamine receptor = D(1A) dopamine receptor (Homo sapiens, UniProt P21728); assay: Binding affinity to D1 receptor (unknown origin)
[13] = biological target: T2, 5-hydroxytryptamine receptor 2A (Homo sapiens, UniProt P28223); assay: Antagonist activity at human 5HT2A receptor expressed in CHO-K1 cells assessed as inhibition of 5HT-induced calcium flux incubated for 60 mins at 37 degC followed by 15 mins incubation at room temperature and subsequent 5HT addition by calcium 4 dye based FLIPR assay; format: functional, cell-based
[14] = biological target: Sigma intracellular receptor 2 (Homo sapiens, UniProt Q5BJF2); assay: Binding affinity to sigma 2 receptor (unknown origin)
D(3) dopamine receptor = D(3) dopamine receptor (Homo sapiens, UniProt P35462)
Description: Binding affinity to D3 receptor (unknown origin)

[15] = biological target: Sodium-dependent dopamine transporter (Homo sapiens, UniProt Q01959); assay: Binding affinity to DAT (unknown origin)
[16] = biological target: 5-hydroxytryptamine receptor 6 (Homo sapiens, UniProt P50406)
Description: Displacement of [3H]lysergic acid diethylamide from human recombinant 5HT6 receptor stably expressed in CHO cell membranes measured after 30 mins by liquid scintillation counting method

[17] = Therapeutic index, ratio of ED50 for toxicity in po dosed Kunming mouse assessed as catalepsy to ED50 for antipsychotic activity in Kunming mouse assessed as inhibition of apomorphine-induced climbing behavior; format: organism-based; conditions: in vivo, read-out: Ratio ED50
Mus musculus [18] = species: Mus musculus; assay: animal or person; conditions: Kunming, po
Description: Antipsychotic activity in Kunming mouse assessed as inhibition of MK801-induced locomotor activity administered orally 30 mins prior to MK801 challenge and measured for 90 mins

[19] = mouse, in vivo, po
Description: Toxicity in po dosed Kunming mouse assessed as catalepsy

Mus musculus [20] = species: Mus musculus; assay: animal or person; conditions: Kunming, po; remark: listed apart in the source
[21] = Therapeutic index, ratio of ED50 for toxicity in po dosed Kunming mouse assessed as catalepsy to ED50 for antipsychotic activity in Kunming mouse assessed as inhibition of MK801-induced locomotor activity; format: organism-based; conditions: in vivo, read-out: Ratio ED50
Mus musculus [22] = species: Mus musculus; assay: animal or person; conditions: Kunming, po, 1.333 h
[23] = Effect on total exploration time in Sprague-Dawley rat at 0.2 mg/kg, po measured after 1 hr by novel object recognition test; format: ADME, organism-based; conditions: in vivo
[24] = Toxicity in Kunming mouse assessed as change in body weight at 0.1 to 0.3 mg/kg, po administered for 28 days measured daily during compound dosing; format: organism-based; conditions: in vivo, 672 h, dose 0.1-0.3 mg/kg, time 28 day
[25] = Displacement of [3H]ketanserin from human 5HT2A receptor expressed in CHO-K1 cells measured after 20 mins
[26] = Effect on spontaneous locomotor activity in Kunming mouse assessed as total distance traveled at 10 mg/kg, ig measured after 1 hr (reference value: 13579 +/- 8864 millimeter); format: ADME, organism-based; conditions: in vivo, po
[27] = Effect on spontaneous locomotor activity in Kunming mouse assessed as total distance traveled at 1 mg/kg, ig measured after 1 hr (reference value: 13579 +/- 8864 millimeter); format: ADME, organism-based; conditions: in vivo, po
[28] = Effect on spontaneous locomotor activity in Kunming mouse assessed as total distance traveled at 3 mg/kg, ig measured after 1 hr (reference value: 13579 +/- 8864 millimeter); format: ADME, organism-based; conditions: in vivo, po
Rattus norvegicus = assay: Cognitive enhancement effect in Sprague-Dawley rat assessed as increase in time spent in exploring novel object at 0.2 mg/kg, po administered 1 hr prior to acquisition trial and measured after 24 hrs by novel object recognition test; format: functional, organism-based
D(2) dopamine receptor [29] = biological target: D(2) dopamine receptor (Homo sapiens, UniProt P14416); assay: Binding affinity to D2 receptor (unknown origin)
[30] = biological target: 5-hydroxytryptamine receptor 1A (Homo sapiens, UniProt P08908); assay: Binding affinity to 5HT1A receptor (unknown origin)
[31] = biological target: T2, 5-hydroxytryptamine receptor 2A; assay: Binding affinity to 5HT2A receptor (unknown origin)
[32] = biological target: 5-hydroxytryptamine receptor 2C (Homo sapiens, UniProt P28335); assay: Binding affinity to 5HT2C receptor (unknown origin)
Histamine H1 receptor [33] = biological target: Histamine H1 receptor (Homo sapiens, UniProt P35367); assay: Binding affinity to H1 receptor (unknown origin)

Sequence of D(2) dopamine receptor (Rattus norvegicus, UniProt P61169) (P61169 whole entry): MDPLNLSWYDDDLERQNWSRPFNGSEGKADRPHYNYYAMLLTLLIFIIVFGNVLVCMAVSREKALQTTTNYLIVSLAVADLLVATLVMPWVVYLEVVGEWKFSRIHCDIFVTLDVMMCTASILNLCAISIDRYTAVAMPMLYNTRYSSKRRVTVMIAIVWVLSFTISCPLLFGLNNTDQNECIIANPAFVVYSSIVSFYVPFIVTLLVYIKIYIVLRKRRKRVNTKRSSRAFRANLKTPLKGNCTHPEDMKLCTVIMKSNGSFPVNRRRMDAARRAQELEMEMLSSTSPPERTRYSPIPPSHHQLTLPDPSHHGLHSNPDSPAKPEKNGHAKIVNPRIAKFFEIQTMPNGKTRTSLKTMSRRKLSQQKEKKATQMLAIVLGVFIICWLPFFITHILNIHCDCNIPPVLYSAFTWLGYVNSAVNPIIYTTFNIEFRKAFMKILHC
Sequence of 5-hydroxytryptamine receptor 2A (Rattus norvegicus, UniProt P14842) (P14842 whole entry): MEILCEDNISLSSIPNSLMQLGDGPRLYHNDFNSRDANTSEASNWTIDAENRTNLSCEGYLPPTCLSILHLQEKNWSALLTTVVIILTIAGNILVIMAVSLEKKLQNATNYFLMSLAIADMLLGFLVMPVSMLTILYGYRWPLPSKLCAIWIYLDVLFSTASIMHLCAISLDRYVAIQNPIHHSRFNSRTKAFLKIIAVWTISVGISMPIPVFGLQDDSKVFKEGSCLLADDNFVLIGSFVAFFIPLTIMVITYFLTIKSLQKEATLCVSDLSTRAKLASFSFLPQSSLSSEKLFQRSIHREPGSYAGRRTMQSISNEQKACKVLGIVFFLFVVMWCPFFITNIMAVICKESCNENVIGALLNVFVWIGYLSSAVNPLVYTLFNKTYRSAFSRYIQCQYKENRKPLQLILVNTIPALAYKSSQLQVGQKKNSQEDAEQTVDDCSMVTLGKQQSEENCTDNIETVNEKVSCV
Sequence of 5-hydroxytryptamine receptor 7 (P32305 whole entry): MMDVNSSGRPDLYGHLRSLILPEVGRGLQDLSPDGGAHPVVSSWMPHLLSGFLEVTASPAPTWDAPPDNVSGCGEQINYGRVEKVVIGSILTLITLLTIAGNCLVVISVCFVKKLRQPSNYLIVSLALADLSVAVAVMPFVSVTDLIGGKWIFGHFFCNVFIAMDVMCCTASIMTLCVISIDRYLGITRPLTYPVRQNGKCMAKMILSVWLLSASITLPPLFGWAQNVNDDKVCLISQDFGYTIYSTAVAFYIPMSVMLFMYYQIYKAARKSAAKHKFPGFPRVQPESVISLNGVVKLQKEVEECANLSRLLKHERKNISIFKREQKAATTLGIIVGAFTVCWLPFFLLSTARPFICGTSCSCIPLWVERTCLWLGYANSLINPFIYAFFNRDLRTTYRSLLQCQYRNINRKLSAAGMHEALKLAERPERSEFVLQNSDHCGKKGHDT
Sequence of 5-hydroxytryptamine receptor 2C (Rattus norvegicus, UniProt P08909) (P08909 whole entry): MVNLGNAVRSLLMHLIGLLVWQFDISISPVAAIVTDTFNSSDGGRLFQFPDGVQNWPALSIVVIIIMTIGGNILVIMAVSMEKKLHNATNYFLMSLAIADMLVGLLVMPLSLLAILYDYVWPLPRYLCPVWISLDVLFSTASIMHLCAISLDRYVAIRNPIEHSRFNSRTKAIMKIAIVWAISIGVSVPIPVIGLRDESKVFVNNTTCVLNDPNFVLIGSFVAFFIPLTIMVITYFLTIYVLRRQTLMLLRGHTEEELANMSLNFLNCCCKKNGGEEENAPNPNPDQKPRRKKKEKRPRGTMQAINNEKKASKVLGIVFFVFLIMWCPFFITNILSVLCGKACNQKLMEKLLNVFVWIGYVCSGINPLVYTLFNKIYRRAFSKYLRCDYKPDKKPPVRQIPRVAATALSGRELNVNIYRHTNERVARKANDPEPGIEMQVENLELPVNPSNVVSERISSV
Sequence of D(3) dopamine receptor (P35462 whole entry): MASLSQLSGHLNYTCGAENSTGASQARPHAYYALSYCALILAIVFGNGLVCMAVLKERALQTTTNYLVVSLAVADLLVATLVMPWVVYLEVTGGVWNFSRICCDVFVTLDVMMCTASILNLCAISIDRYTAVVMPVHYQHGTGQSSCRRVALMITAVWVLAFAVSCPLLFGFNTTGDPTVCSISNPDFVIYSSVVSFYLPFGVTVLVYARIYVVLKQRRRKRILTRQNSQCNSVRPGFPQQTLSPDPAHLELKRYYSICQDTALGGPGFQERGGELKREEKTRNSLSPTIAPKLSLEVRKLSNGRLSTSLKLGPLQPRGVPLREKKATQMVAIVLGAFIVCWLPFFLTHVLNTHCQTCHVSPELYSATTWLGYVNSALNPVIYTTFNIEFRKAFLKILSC
T2 sequence (P28223 whole entry): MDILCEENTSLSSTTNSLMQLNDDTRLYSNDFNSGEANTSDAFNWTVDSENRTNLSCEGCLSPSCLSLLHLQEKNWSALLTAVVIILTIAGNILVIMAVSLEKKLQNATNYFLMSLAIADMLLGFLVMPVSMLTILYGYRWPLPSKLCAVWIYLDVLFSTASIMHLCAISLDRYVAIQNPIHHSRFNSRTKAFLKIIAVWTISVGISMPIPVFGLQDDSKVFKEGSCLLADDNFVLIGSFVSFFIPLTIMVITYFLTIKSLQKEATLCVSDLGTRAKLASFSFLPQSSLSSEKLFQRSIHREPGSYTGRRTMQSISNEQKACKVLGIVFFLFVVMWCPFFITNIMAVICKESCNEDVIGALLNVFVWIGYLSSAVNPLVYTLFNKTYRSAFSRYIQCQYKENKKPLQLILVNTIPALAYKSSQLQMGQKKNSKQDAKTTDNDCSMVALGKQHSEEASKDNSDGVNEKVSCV
Sequence of Histamine H1 receptor (Cavia porcellus, UniProt P31389) (P31389 whole entry): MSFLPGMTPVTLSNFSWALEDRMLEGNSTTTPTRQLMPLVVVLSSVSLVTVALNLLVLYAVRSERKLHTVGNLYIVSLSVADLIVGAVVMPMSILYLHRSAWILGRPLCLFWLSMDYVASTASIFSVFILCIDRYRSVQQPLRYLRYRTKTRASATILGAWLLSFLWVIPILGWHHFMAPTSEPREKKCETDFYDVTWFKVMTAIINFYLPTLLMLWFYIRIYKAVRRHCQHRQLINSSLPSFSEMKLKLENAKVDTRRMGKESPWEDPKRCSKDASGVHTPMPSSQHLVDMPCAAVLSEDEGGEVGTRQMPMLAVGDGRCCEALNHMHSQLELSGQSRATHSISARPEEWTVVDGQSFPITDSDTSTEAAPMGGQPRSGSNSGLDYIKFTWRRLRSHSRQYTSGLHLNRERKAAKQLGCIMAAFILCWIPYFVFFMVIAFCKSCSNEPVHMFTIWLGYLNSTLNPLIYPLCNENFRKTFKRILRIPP
Sequence of 5-hydroxytryptamine receptor 1A (Homo sapiens, UniProt P08908) (P08908 whole entry): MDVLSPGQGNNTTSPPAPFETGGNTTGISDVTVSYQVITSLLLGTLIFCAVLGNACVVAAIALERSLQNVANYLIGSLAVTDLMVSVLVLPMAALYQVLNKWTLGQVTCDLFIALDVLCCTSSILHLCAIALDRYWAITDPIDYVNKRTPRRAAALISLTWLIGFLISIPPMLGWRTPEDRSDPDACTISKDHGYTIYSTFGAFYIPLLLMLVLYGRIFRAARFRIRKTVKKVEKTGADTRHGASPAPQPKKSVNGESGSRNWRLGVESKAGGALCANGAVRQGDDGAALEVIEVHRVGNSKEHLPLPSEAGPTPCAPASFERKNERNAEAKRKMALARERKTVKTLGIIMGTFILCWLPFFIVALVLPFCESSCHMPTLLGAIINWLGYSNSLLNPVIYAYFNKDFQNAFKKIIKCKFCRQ
Sequence of 5-hydroxytryptamine receptor 6 (P50406 whole entry): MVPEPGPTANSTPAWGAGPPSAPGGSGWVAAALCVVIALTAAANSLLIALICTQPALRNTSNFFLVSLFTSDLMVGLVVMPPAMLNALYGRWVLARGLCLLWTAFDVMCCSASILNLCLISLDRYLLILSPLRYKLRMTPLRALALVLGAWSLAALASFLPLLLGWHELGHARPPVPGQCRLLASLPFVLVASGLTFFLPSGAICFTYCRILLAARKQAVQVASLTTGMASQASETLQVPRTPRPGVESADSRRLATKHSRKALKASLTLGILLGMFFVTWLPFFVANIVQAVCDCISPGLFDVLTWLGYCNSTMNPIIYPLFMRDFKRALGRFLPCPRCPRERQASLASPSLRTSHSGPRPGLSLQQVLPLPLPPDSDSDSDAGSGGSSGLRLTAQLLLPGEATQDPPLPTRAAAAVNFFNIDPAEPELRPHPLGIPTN
Sequence of D(2) dopamine receptor (Homo sapiens, UniProt P14416) (P14416 whole entry): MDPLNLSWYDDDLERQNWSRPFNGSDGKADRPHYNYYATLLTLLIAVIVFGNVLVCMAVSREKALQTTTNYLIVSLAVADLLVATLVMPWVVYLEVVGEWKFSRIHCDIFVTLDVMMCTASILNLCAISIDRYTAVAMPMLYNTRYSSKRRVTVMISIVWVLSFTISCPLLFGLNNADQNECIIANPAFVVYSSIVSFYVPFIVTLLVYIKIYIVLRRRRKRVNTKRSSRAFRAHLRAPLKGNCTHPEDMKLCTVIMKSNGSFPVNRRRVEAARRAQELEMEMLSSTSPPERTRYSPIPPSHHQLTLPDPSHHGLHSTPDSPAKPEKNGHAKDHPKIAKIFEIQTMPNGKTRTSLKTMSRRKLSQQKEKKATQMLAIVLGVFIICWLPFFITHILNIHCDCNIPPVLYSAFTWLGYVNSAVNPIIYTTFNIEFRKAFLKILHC
Sequence of Sigma non-opioid intracellular receptor 1 (Q99720 whole entry): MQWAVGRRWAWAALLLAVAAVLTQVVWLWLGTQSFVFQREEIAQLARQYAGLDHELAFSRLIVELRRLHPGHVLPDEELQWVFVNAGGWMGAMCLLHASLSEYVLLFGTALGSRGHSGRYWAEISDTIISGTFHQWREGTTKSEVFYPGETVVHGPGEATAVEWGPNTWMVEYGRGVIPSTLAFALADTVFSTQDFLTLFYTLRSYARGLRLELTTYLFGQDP
Sequence of Sigma intracellular receptor 2 (Q5BJF2 whole entry): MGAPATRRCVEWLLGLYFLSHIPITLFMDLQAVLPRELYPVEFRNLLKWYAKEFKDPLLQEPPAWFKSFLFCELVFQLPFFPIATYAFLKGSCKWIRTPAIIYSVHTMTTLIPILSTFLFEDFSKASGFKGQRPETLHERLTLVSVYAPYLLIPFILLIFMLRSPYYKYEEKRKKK

SMILES	Ki (D(2) dopamine receptor [1])	Ki [2]	Ki [3]	also measured
COc1ccccc1N1CCN(CCCOc2ccc3c(c2)C(=O)N(C)CC3)CC1	896 nM	992 nM	1110 nM	
CN1CCc2ccc(OCCCN3CCN(c4cccc5sccc45)CC3)cc2C1=O			65.2 nM	
CN1CCc2ccc(OCCCN3CCN(c4ccccn4)CC3)cc2C1=O	> 10000 nM	1160 nM	> 10000 nM	
CN1CCc2ccc(OCC(F)CN3CCC(c4noc5cc(F)ccc45)CC3)cc2C1=O (stereo unspecified)	359 nM	23.7 nM	68.2 nM	
CN1CCc2ccc(OCCCN3CCN(c4ccc5ccccc5n4)CC3)cc2C1=O	> 10000 nM	> 10000 nM	10.2 nM	
CN1CCc2ccc(OCCCCN3CCN(c4cccc(C(F)(F)F)c4)CC3)cc2C1=O	261 nM	132 nM	1040 nM	
CN1CCc2ccc(OCCCN3CCC(c4noc5cc(F)ccc45)CC3)cc2C1=O		0.65 nM	9.1 nM	Ki [4]: > 1000 nM; Ki [5]: > 1000 nM; Ki (Histamine H3 receptor): > 1000 nM; Ki [6]: 991 nM; Ki (Histamine H1 receptor [7]): 1200 nM; Ki [8]: 1690 nM; Ki [9]: > 1000 nM; Ki [10]: 4.9 nM; IC50 [11]: 2310 nM; Ki [12]: > 1000 nM; Ki (D(1A) dopamine receptor): > 1000 nM; IC50 [13]: 46.3 nM; Ki [14]: > 1000 nM; Ki (D(3) dopamine receptor): 226 nM; Ki [15]: > 1000 nM
COc1ccc(N2CCN(CCCOc3ccc4c(c3)C(=O)N(C)CC4)CC2)cc1	> 10000 nM	> 10000 nM	> 10000 nM	
CN1CCc2ccc(OCCCN3CCN(c4ncccn4)CC3)cc2C1=O	1370 nM	65.3 nM	59.3 nM	
Cn1ccc2ccc(OCCCN3CCC(c4noc5cc(F)ccc45)CC3)cc2c1=O	9.2 nM	3.5 nM	12.1 nM	Ki [6]: 718 nM; Ki (Histamine H1 receptor [7]): 118 nM; Ki [8]: 129 nM; Ki [10]: 109 nM; Ki [16]: 167 nM
CN1CCc2ccc(OCCCN3CCN(c4cccc(C(F)(F)F)c4)CC3)cc2C1=O	123 nM	102 nM	1040 nM	
CN1CCc2ccc(OCCCN3CCC(C(=O)c4ccc(F)cc4F)CC3)cc2C1=O	902 nM	> 10000 nM	> 10000 nM	
CN1CCc2ccc(OCCCCN3CCN(c4cccc5sccc45)CC3)cc2C1=O	162 nM		431 nM	
CN1CCc2ccc(OCCCN3CCN(c4ccccc4F)CC3)cc2C1=O	117 nM	306 nM	262 nM	
O=C(CCCN1CCC(O)(c2ccc(Cl)cc2)CC1)c1ccc(F)cc1 [HALOPERIDOL]				selectivity ratio [17]: 3.5; ED50 (Mus musculus [18]): 0.11 mg/kg; ED50 [19]: 0.32 mg/kg; ED50 (Mus musculus [20]): 0.09 mg/kg; selectivity ratio [21]: 2.9
CN1CCc2ccc(OCCCCN3CCN(c4cccc(Cl)c4Cl)CC3)cc2C1=O	316 nM	216 nM	119 nM	
CN1CCc2ccc(OCCCN3CCN(Cc4ccc5c(c4)OCO5)CC3)cc2C1=O	> 10000 nM	25.9 nM	18.3 nM	
CN1COc2ccc(OCCCN3CCC(c4noc5cc(F)ccc45)CC3)cc2C1=O	698 nM	598 nM	187 nM	

SMILES	Ki (D(2) dopamine receptor [1])	Ki [2]	Ki [3]	also measured
CCN1CCc2ccc(OCCCN3CCC(c4noc5cc(F)ccc45)CC3)cc2C1=O	249 nM	92.1 nM	198 nM	
Cc1nc2n(c(=O)c1CCN1CCC(c3noc4cc(F)ccc34)CC1)CCCC2 [RISPERIDONE]				ED50 (Mus musculus [18]): 0.04 mg/kg; ED50 (Mus musculus [22]): 0.04 mg/kg; ED50 [19]: 1.62 mg/kg; ED50 (Mus musculus [20]): 0.02 mg/kg; Activity [23]: Non-Toxic; Activity [24]: Toxic
CN1CCc2ccc(OCCCN3CCN(c4ccc(F)cc4)CC3)cc2C1=O	532 nM	246 nM	158 nM	
CN1CCc2ccc(OCCCCN3CCC(c4noc5cc(F)ccc45)CC3)cc2C1=O	41.6 nM	28.3 nM	30.6 nM	
CN1CCc2ccc(OCCCN3CCN(c4ccccc4)CC3)cc2C1=O	> 10000 nM	> 10000 nM	> 10000 nM	
O=c1ccc2ccc(OCCCCN3CCN(c4cccc5sccc45)CC3)cc2[nH]1 [BREXPIPRAZOLE]				Ki [25]: 0.47 nM
O=C1CN=C(c2ccccc2Cl)c2cc([N+](=O)[O-])ccc2N1 [CLONAZEPAM]				Activity [26]: 762 mm; Activity [27]: 12188 mm; Activity [28]: 5784 mm
CCN(C)C(=O)Oc1cccc([C@H](C)N(C)C)c1 [RIVASTIGMINE]				Activity [23]: Non-Toxic; Activity (Rattus norvegicus): Active
CN1CCc2ccc(OCCCN3CCN(c4ccc(Cl)cc4)CC3)cc2C1=O	268 nM	589 nM	356 nM	
CN1CCc2ccc(OCCN3CCC(c4noc5cc(F)ccc45)CC3)cc2C1=O	568 nM	> 10000 nM	> 10000 nM	
O=C(CCCCN1CCC(c2noc3cc(F)ccc23)CC1)c1cc2c3c(c1)CCN3C(=O)CC2				Ki (D(2) dopamine receptor [29]): 2.9 nM; Ki [30]: 8.6 nM; Ki [31]: 0.72 nM; Ki [32]: 616 nM; Ki (D(3) dopamine receptor): 1.66 nM; Ki (Histamine H1 receptor [33]): 630 nM
COc1ccccc1N1CCN(CCCCOc2ccc3c(c2)C(=O)N(C)CC3)CC1	> 10000 nM	> 10000 nM	> 10000 nM	
CN1CCc2ccc(OCC(O)CN3CCC(c4noc5cc(F)ccc45)CC3)cc2C1=O (stereo unspecified)	1240 nM	768 nM	856 nM	
CC1CCc2ccc(OCCCCN3CCC(c4nsc5ccccc45)CC3)cc2C1=O (stereo unspecified)	> 10000 nM	890 nM	1300 nM	
CN1CCc2ccc(OCCCN3CCN(c4ccccc4Cl)CC3)cc2C1=O	391 nM	179 nM	89.2 nM	
CN1CCc2ccc(OCCCN3CCN(c4cccc(Cl)c4Cl)CC3)cc2C1=O	68.2 nM	16.8 nM	20.1 nM	
CN1CCc2cc(OCCCN3CCC(c4noc5cc(F)ccc45)CC3)ccc2C1=O	> 10000 nM	692 nM	> 10000 nM	
